For data set [1], the target named is T1, BuChE (from equine serum) (Equus caballus, UniProt P81908).
T1 construct: BuChE (from equine serum); purchased Sigma Chemical Company (St. Louis, MO, USA); host or cells: equine serum
The data set can be described thus: biochemical. To be noted: mean ± SD of three experiments, read-out: BuChE Inhibition (IC50).

A further data set has as its target T2, AChE (Electrophorus electricus, UniProt O42275).
T2 construct: AChE (from electric eel); purchased Sigma Chemical Company (St. Louis, MO, USA)
As to the kind of experiment: Kinetic study of AChE inhibition (Lineweaver–Burk). Type of data set: biochemical. Here is the method:
The specific steps are similar to those described in Section 4.3 for the enzyme inhibition assay. In brief, 100 μL of different concentrations of 4h (0, 0.075, 0.15, and 0.3 μM)/4h (0, 3, 6, and 12 μM) and 100 μL of different concentrations of AChE/BuChE (1, 0.5, 0.25, 0.125, and 0.0625 U/mL) were added into 48-well plates and then co-incubated at 37 °C for 30 min. After the end of incubation, 100 μL of ATCI/BTCI (0.35 mM), 100 μL of PB solution, and 100 μL DTNB (0.35 mM) were added, and then changes in absorbance were measured at different times at 412 nm by multifunctional microplate reader, and the catalytic reaction rate of AChE/BuChE was determined. All concentrations are final. With the enzyme reaction rate V as the ordinate and AChE/BuChE concentration as the abscissa, the curve was drawn to determine the reversibility of the compound to AChE/BuChE.
In order to determination of inhibition types and the constant of AChE/BuChE, the concentration of AChE/BuChE (0.5 U/mL) in the reaction system was fixed. Five different substrate concentrations and four different concentrations of test compound 4h were used to measure the absorbance changes at different times at 412 nm. The reciprocal of the enzymatic reaction rate (1/V) was taken as the ordinate, and the reciprocal of the substrate ATCI/BTCI concentration (1/S) was taken as the abscissa.
[…]. […]

Data set [2] deals with BV2 cells. As to the kind of experiment: LPS-induced ROS production in BV2 cells. Type of data set: cell-based. The settings on record: 4h 7.5, 15, 30 μM. Here is the method:
Intracellular ROS levels was detected by the ROS assay kit (Biyuntian Biotechnology, Hang Zhou, China). […] The control group involved culturing the BV2 microglia cells in normal culture media without any treatment. Then, the cells were washed with PBS (pH 7.2) and incubated with DCFH-DA at 37 °C for 20 min. Finally, cells were washed with DMEM and the fluorescence intensity was observed under confocal laser scanning microscope.

The test system of another data set is HepG2 cells. As to the kind of experiment: Hepatotoxicity in HepG2 cells (MTT). Type of data set: cell-based. To be noted: 10, 30 and 50 μM. Here is the method:
The hepatotoxicity of compound 4h in normal AML-12 hepatocytes and HepG2 liver cancer cells was examined by MTT method. AML-12 cells and HepG2 cells were seeded into 96-well plates at a density of 5.0 × 10^3 cells per well, respectively. After the cells were incubated overnight, the old medium was discarded. The cells were incubated for 48 h with fresh medium containing various concentrations of the test compound. After 48 h of incubation, 20 μL of MTT (5 mg/mL) was added to each well and incubate for an additional 4 h. Formazan was dissolved with DMSO (150 μL). […]

A short description of data set [3]: LD50 determination in mice (Bliss method). It is filed as in vivo, C57BL mice. To be noted: male, C57BL, mouse, in vivo, po, intragastric administration 7 days, Bliss method, read-out: LD50 (95% confidence limit). As to the method: (§1) Male C57BL mice (18–23 g; 8 weeks old) were purchased from the Experimental Center of Anhui University of Traditional Chinese Medicine. Mice were reared in a temperature and humidity controlled environment with free access to food and water, with self-adaptive rearing for 4 days.
(§2) Thirty mice were randomly divided into five groups, and the death of each group was counted after 7 days of intragastric administration (100, 80, 64, 51.2, 40.96 mg/kg). The Bliss method was used to calculate the LD50 and 95% confidence limit.

The next data set deals with mice. The data set can be described thus: LD50 determination in mice (Bliss method). Type of data set: in vivo, C57BL mice. To be noted: intragastric 7 days. Here is the method:
as §1, §2

Data set [4] relates to BV2 cells. The data set can be described thus: Cytotoxicity in BV2 cells (MTT). It is filed as cell-based. As to the method: The cytotoxicity and neuroprotective effects of the compounds on PC12 cells were evaluated by MTT assay. PC12 cells were seeded into a 96-well plate at a density of 5.0 × 10^3 cells per well. After the cells were incubated overnight, the old medium was discarded. The cells were incubated for another 24 h with fresh medium containing compounds at a concentration of 30 or 50 μM. A total of 20 μL of MTT solution (5 mg/mL, Sigma-Aldrich, Shanghai, China) was then added per well, and the cells were incubated for an additional 4 h. Afterwards, the supernatant was removed and 150 μL of DMSO was added to solubilize formazan crystals. The 96-well plate was placed on the shaker for 10–15 min, and then the absorbance at 492 nm was measured by a microplate reader.
The cytotoxicity of compounds on BV2 cells were evaluated by MTT assay and similar to those described in Section 2.5. The NO concentrations in medium were determined using Griess Reagent assay (Beyotime) in accordance with a previously reported method. Nitrite is reduced to nitrogen oxide using Griess Reagent I. Nitrogen oxide then reacts with Griess Reagent II forming a stable product that can be detected by its absorbance at […]. The two-step assay is simple, fast, and can detect nitrite levels as low as 1 nmol/well. BV2 cells were seeded into a 48-well plate at a density of 6.0 × 10^4 cells per well. […]

The next data set concerns SY5Y cells. As to the kind of experiment: Cytotoxicity in SY5Y cells (MTT). Type of data set: cell-based.

T2 sequence (O42275 24-633): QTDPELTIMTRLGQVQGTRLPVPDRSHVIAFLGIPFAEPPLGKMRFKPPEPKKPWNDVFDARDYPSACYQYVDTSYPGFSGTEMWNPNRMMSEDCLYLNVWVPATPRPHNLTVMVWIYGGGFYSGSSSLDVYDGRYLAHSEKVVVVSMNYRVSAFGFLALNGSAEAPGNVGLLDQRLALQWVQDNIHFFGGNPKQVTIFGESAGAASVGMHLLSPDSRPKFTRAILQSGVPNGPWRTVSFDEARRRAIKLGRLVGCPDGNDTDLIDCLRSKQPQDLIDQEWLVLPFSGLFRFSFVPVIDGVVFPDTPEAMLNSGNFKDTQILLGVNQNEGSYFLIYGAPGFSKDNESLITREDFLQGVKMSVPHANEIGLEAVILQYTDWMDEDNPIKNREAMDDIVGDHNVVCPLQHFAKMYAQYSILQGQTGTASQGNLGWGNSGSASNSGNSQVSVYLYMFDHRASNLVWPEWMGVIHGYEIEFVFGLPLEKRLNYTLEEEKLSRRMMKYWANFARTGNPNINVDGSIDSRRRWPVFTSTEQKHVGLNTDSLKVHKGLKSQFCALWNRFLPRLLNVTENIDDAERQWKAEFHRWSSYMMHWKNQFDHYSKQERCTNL
T1 sequence (P81908 whole entry): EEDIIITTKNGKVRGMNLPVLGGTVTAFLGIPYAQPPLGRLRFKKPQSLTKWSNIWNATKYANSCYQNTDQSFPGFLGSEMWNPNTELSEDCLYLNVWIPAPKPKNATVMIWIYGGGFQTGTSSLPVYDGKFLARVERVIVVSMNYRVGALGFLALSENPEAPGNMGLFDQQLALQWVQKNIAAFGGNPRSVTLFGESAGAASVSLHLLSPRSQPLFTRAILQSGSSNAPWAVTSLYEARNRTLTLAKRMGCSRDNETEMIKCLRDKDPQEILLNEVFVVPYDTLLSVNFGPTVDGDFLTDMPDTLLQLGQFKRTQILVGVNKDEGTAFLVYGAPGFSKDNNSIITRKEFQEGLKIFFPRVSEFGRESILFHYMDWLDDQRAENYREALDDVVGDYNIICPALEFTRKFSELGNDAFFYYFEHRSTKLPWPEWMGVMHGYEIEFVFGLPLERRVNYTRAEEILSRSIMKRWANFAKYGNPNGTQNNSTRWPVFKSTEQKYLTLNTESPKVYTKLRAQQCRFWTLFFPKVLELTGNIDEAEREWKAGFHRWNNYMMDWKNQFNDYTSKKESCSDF

Consider `O=C1c2cc(NS(=O)(=O)c3ccccc3F)ccc2-n2c1nc1ccccc1c2=O` [4h], for which, in data set [1], the IC50 is 6.11 ± 0.15 µM. Besides, the AChE inhibition type entry on AChE (Lineweaver–Burk double-reciprocal plot) is “mixed-type inhibition”. Further, the affinity on AChE (Lineweaver–Burk secondary plot), expressed as Ki, was 0.0831 µM. For the same compound, the “Intracellular ROS levels in BV2 cells” value in the data set with BV2 cells [2] was “significantly reduced intracellular ROS levels”. In addition, the “Hepatotoxicity in HepG2 cells” value in the data set on HepG2 cells was “had no toxicity”. For the same compound, the LD50 at 7 days in data set [3] was 84.8 mg/kg. For the same compound, the “Mortality rate (%)” value with mice (40.96 mg/kg) amounted to 0%; with mice (51.2 mg/kg) it was 0%; in the data set on mice (64 mg/kg) it was 16.7%; with mice (80 mg/kg), 50%; in the data set on mice (100 mg/kg), 66.7%. The Number of deaths in the data set with mice (40.96 mg/kg) came out at 0; in the data set on mice (51.2 mg/kg), 0; with mice (64 mg/kg), 1; with mice (80 mg/kg) it was 3; with mice (100 mg/kg), 4. Also, the “Cell Viability (% of Control)” value in the data set on BV2 cells [4] (30 μM) is listed as 101.23 ± 1.82 % of control; in the data set with BV2 cells [4] (50 μM), 97.44 ± 1.36 % of control; in the data set with SY5Y cells (30 μM), 97.84 ± 1.24 % of control; in the data set with SY5Y cells (50 μM) it was 91.33 ± 1.48 % of control.

By IC50 is commonly meant the concentration that gives 50% inhibition. In general, Ki refers to the dissociation constant of the complex between target and ligand, obtained from inhibition or displacement. High values mean weaker binding, low ones tighter binding. As a reminder, the LD50 is the dose at which mortality reaches 50%.

The record behind these values is publication PMC10610214 (Pharmaceuticals, 2023).
